Measured values: PubChem BioAssay (NCI)
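1) Cells in 96-well plates. 2) Compound, 48 h, 5 concentrations. 3) Linear interpolation between surrounding doses. 4) Unreached endpoint = highest concentration. Definition used: TGI = concentration required for complete inhibition of growth.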

Tests used:
Assay in all cases: growth of human tumour cells (NCI), 48 h
786-0 renal = system: 786-0 renal
A498 renal = system: A498 renal
A549 NSCLC = system: A549 NSCLC
ACHN renal = system: ACHN renal
BT-549 breast = system: BT-549 breast
CAKI-1 renal = system: CAKI-1 renal
CCRF-CEM leukemia = system: CCRF-CEM leukemia
COLO 205 colon = system: COLO 205 colon
DU-145 prostate = system: DU-145 prostate
EKVX NSCLC = system: EKVX NSCLC
HCC-2998 colon = system: HCC-2998 colon
HCT-116 colon = system: HCT-116 colon
HCT-15 colon = system: HCT-15 colon
HL-60(TB) leukemia = system: HL-60(TB) leukemia
HOP-62 NSCLC = system: HOP-62 NSCLC
HOP-92 NSCLC = system: HOP-92 NSCLC
HS 578T breast = system: HS 578T breast
HT29 colon = system: HT29 colon
IGROV1 ovarian = system: IGROV1 ovarian
K-562 leukemia = system: K-562 leukemia
KM12 colon = system: KM12 colon
LOX IMVI melanoma = system: LOX IMVI melanoma
M14 melanoma = system: M14 melanoma
MALME-3M melanoma = system: MALME-3M melanoma
MCF7 breast = system: MCF7 breast
MDA-MB-231 breast = system: MDA-MB-231 breast
MDA-MB-435 = system: MDA-MB-435
MDA-N = system: MDA-N
MOLT-4 leukemia = system: MOLT-4 leukemia
NCI-H23 lung = system: NCI-H23 lung
NCI-H460 lung = system: NCI-H460 lung
NCI-H522 lung = system: NCI-H522 lung
NCI/ADR-RES ovarian = system: NCI/ADR-RES ovarian
OVCAR-3 ovarian = system: OVCAR-3 ovarian
OVCAR-5 ovarian = system: OVCAR-5 ovarian
OVCAR-8 ovarian = system: OVCAR-8 ovarian
PC-3 prostate = system: PC-3 prostate
RPMI-8226 leukemia = system: RPMI-8226 leukemia
RXF 393 renal = system: RXF 393 renal
SF-268 CNS = system: SF-268 CNS
SF-295 CNS = system: SF-295 CNS
SF-539 CNS = system: SF-539 CNS
SK-MEL-2 melanoma = system: SK-MEL-2 melanoma
SK-MEL-28 melanoma = system: SK-MEL-28 melanoma
SK-MEL-5 melanoma = system: SK-MEL-5 melanoma
SK-OV-3 ovarian = system: SK-OV-3 ovarian
SN12C renal = system: SN12C renal
SNB-19 CNS = system: SNB-19 CNS
SNB-75 CNS = system: SNB-75 CNS
SR leukemia = system: SR leukemia
SW-620 colon = system: SW-620 colon
T-47D breast = system: T-47D breast
TK-10 renal = system: TK-10 renal
U251 CNS = system: U251 CNS
UACC-257 melanoma = system: UACC-257 melanoma
UACC-62 melanoma = system: UACC-62 melanoma
UO-31 renal = system: UO-31 renal
NCI-H226 lung = system: NCI-H226 lung
OVCAR-4 ovarian = system: OVCAR-4 ovarian

## COc1ccc(C(CC2(c3ccc(OC)cc3)SCCCS2)NC(C)=O)cc1 (stereo not given)
786-0 renal
  TGI: > 100 µM
A498 renal
  TGI: > 100 µM
A549 NSCLC
  TGI: > 100 µM
ACHN renal
  TGI: > 100 µM
BT-549 breast
  TGI: > 100 µM
CAKI-1 renal
  TGI: > 100 µM
CCRF-CEM leukemia
  TGI: > 100 µM
COLO 205 colon
  TGI: 56.7 µM
DU-145 prostate
  TGI: > 100 µM
EKVX NSCLC
  TGI: > 100 µM
HCC-2998 colon
  TGI: > 100 µM
HCT-116 colon
  TGI: > 100 µM
HCT-15 colon
  TGI: > 100 µM
HL-60(TB) leukemia
  TGI: > 100 µM
HOP-62 NSCLC
  TGI: > 100 µM
HOP-92 NSCLC
  TGI: > 100 µM
HS 578T breast
  TGI: > 100 µM
HT29 colon
  TGI: > 100 µM
IGROV1 ovarian
  TGI: > 100 µM
K-562 leukemia
  TGI: > 100 µM
KM12 colon
  TGI: > 100 µM
LOX IMVI melanoma
  TGI: > 100 µM
M14 melanoma
  TGI: > 100 µM
MALME-3M melanoma
  TGI: > 100 µM
MCF7 breast
  TGI: > 100 µM
MDA-MB-231 breast
  TGI: > 100 µM
MDA-MB-435
  TGI: > 100 µM
MDA-N
  TGI: > 100 µM
MOLT-4 leukemia
  TGI: 84.3 µM
NCI-H23 lung
  TGI: > 100 µM
NCI-H460 lung
  TGI: > 100 µM
NCI-H522 lung
  TGI: > 100 µM
NCI/ADR-RES ovarian
  TGI: 73.4 µM
OVCAR-3 ovarian
  TGI: > 100 µM
OVCAR-5 ovarian
  TGI: > 100 µM
OVCAR-8 ovarian
  TGI: > 100 µM
PC-3 prostate
  TGI: 69 µM
RPMI-8226 leukemia
  TGI: > 100 µM
RXF 393 renal
  TGI: > 100 µM
SF-268 CNS
  TGI: > 100 µM
SF-295 CNS
  TGI: > 100 µM
SF-539 CNS
  TGI: > 100 µM
SK-MEL-2 melanoma
  TGI: > 100 µM
SK-MEL-28 melanoma
  TGI: > 100 µM
SK-MEL-5 melanoma
  TGI: 37.7 µM
SK-OV-3 ovarian
  TGI: > 100 µM
SN12C renal
  TGI: 96.8 µM
SNB-19 CNS
  TGI: > 100 µM
SNB-75 CNS
  TGI: > 100 µM
SR leukemia
  TGI: > 100 µM
SW-620 colon
  TGI: > 100 µM
T-47D breast
  TGI: 66.5 µM
TK-10 renal
  TGI: > 100 µM
U251 CNS
  TGI: > 100 µM
UACC-257 melanoma
  TGI: 70.2 µM
UACC-62 melanoma
  TGI: > 100 µM
UO-31 renal
  TGI: > 100 µM

## C=C(Cl)C(Cl)(CBr)CCC(Br)C(C)(C)Br (stereo not given)
786-0 renal
  TGI: 2.59 µM
A498 renal
  TGI: 23.3 µM
A549 NSCLC
  TGI: 16.3 µM
ACHN renal
  TGI: 5.53 µM
BT-549 breast
  TGI: 20.8 µM
CAKI-1 renal
  TGI: 5.3 µM
CCRF-CEM leukemia
  TGI: 23.5 µM
COLO 205 colon
  TGI: 10.8 µM
DU-145 prostate
  TGI: 11.9 µM
EKVX NSCLC
  TGI: 15.6 µM
HCC-2998 colon
  TGI: 19.9 µM
HCT-116 colon
  TGI: 4.04 µM
HCT-15 colon
  TGI: 9.35 µM
HL-60(TB) leukemia
  TGI: 6.02 µM
HOP-62 NSCLC
  TGI: 1.83 µM
HOP-92 NSCLC
  TGI: 4.38 µM
HS 578T breast
  TGI: 12.1 µM
HT29 colon
  TGI: 2.41 µM
IGROV1 ovarian
  TGI: 37.3 µM
K-562 leukemia
  TGI: 16.3 µM
KM12 colon
  TGI: 3.45 µM
LOX IMVI melanoma
  TGI: 33.3 µM
M14 melanoma
  TGI: 33.6 µM
MALME-3M melanoma
  TGI: 29.6 µM
MCF7 breast
  TGI: 3.34 µM
MDA-MB-231 breast
  TGI: 27.6 µM
MDA-MB-435
  TGI: 24.5 µM
MDA-N
  TGI: 21.2 µM
MOLT-4 leukemia
  TGI: 25.3 µM
NCI-H226 lung
  TGI: 37.2 µM
NCI-H23 lung
  TGI: 31.5 µM
NCI-H460 lung
  TGI: 3.71 µM
NCI-H522 lung
  TGI: 19.3 µM
NCI/ADR-RES ovarian
  TGI: > 55.4 µM
OVCAR-3 ovarian
  TGI: 6.65 µM
OVCAR-4 ovarian
  TGI: 36 µM
OVCAR-5 ovarian
  TGI: 25.4 µM
OVCAR-8 ovarian
  TGI: 13.9 µM
PC-3 prostate
  TGI: 5.68 µM
RPMI-8226 leukemia
  TGI: 2.01 µM
RXF 393 renal
  TGI: 4.03 µM
SF-268 CNS
  TGI: 10.7 µM
SF-295 CNS
  TGI: 3.78 µM
SF-539 CNS
  TGI: 4.01 µM
SK-MEL-28 melanoma
  TGI: 10.1 µM
SK-MEL-5 melanoma
  TGI: 30.2 µM
SK-OV-3 ovarian
  TGI: 26.5 µM
SN12C renal
  TGI: 19.7 µM
SNB-19 CNS
  TGI: 23.1 µM
SNB-75 CNS
  TGI: 5.45 µM
SR leukemia
  TGI: 32.9 µM
SW-620 colon
  TGI: 8.32 µM
T-47D breast
  TGI: 7.42 µM
TK-10 renal
  TGI: 3.12 µM
U251 CNS
  TGI: 3.37 µM
UACC-257 melanoma
  TGI: 4.4 µM
UACC-62 melanoma
  TGI: 28.5 µM
UO-31 renal
  TGI: 20.1 µM
